Our source for the dose-limiting toxicity, maximal tolerated dose and tumor growth suppressed values is patent US12364752B2, “Methods of enhancing immunogenicity of poorly immunogenic antigen-specific vaccines using oral yeast beta-glucans” (priority 2018, dated 2025).

The test system of one series is neuroblastoma. Kind of series: Phase I trial of GD2/GD3 bivalent vaccine with oral beta-glucan. To be noted: at 150 μg/m^2 s.c. with bivalent vaccine.
The conditions of series [1]: Livingston et al. 1994; cited from earlier work.
For the next series, the system named is Ramos tumor cells. Kind of series: Ramos xenografts in SCID mice, Rituxan plus oral botanical adjuvants. The class given is in vivo. To be noted: Rituxan alone at 5 μg dose.

Experimental for Ramos tumor cells: SCID mice (Jackson Lab, Bar Harbor ME) were first implanted subcutaneously in the flank area with Ramos tumor cells (a human lymphoma cell line; Pagel et al., Blood 108:328-36 (2006)) freshly harvested from culture and suspended in 100 μl matrigel (BD Biosciences, Billerica MA). When small palpable tumors started to appear (6-8 mm size), mice were randomly separated into treatment groups of 5 mice each. Mice were then given either oral botanical adjuvant, intravenous Rituxan mAb, or oral botanical adjuvant plus Rituxan mAb for 3 weeks. MAb was given twice a week through the tail vein. 2 mg of the tested botanical adjuvant (20 mg/ml solution or suspension in LPS-free water) was given by intragastric injection for 5 times a week. Tumor sizes (length and width) were measured twice a week with calipers. Mice were sacrificed when tumors were larger than 20 mm in length. For each botanical adjuvant, two endpoints were obtained: (1) positive anti-tumor effect [defined as statistically different from control group (treated with antibody alone)] and (2) anti-tumor index defined as (Mean tumor growth rate in mice treated with antibody alone)/(Mean tumor growth rate in mice treated with botanical adjuvant+antibody).
Experimental for neuroblastoma: Patients with neuroblastoma in ≥2nd complete/very good partial remission received vaccine subcutaneously (at weeks 1, 2, 3, 8, 20, 32 and 52). The bivalent vaccine contained 30 μg each of GD2 and GD3 stabilized as lactones and conjugated to the immunologic carrier protein keyhole limpet hemocyanin (KLH); and OPT-821, which was dose escalated as 50, 75, 100, and 150 μg/m^2 per s.c. injection. Oral beta-glucan administration (40 mg/kg/day, 14 days on/14 days off x 12 cycles) was started at week 6 (FIG. 14).

With QS21, the dose-limiting toxicity result with neuroblastoma is given as “no dose-limiting toxicity”. The maximal tolerated dose in series [1] is 20 µg.

For the substance Rituxan: rituximab mAb, in the series with Ramos tumor cells, the tumor growth suppressed was 30%.
